Laboratory results: ChEMBL document CHEMBL5727660, “Compounds for the treatment of pain” (2020)

Molecular target: Mu-type opioid receptor (Homo sapiens, UniProt P35372)
Assay: Competitive Displacement Assay: Membrane protein from CHO (Chinese Hamster Ovarian) cells that stably expressed one type of the cloned human opioid receptor were incubated with 12 different concentrations of the compound in the presence of 0.25 nM [3H]DAMGO, 0.2 nM [3H]naltrindole or 1 nM [3H]U69,593 in a final volume of 1 mL of 50 mM Tris-HCl, pH 7.5 at 25° C. Incubation times of 60 min were used for [3H]DAMGO and [3H]U69,593. Because of a slower association of [3H]naltrindole with the receptor, a 3 h incubation was used with this radioligand. Samples incubated with [3H]naltrindole also contained 10 mM MgCl2 and 0.5 mM phenylmethylsulfonyl fluoride. Nonspecific binding was measured by inclusion of 10 μM naloxone. The binding was terminated by filtering the samples through Schleicher & Schuell No. 32 glass fiber filters using a Brandel 48-well cell harvester. The filters were subsequently washed three times with 3 mL of cold 50 mM Tris-HCl, pH 7.5, and were counted in 2 mL Ecoscint A scintillation fluid. For [3H]naltrindole and [3H]U69,593 binding, the filters were soaked in 0.1% polyethylenimine for at least 60 min before use.

Mu-type opioid receptor, sequence (P35372 whole entry): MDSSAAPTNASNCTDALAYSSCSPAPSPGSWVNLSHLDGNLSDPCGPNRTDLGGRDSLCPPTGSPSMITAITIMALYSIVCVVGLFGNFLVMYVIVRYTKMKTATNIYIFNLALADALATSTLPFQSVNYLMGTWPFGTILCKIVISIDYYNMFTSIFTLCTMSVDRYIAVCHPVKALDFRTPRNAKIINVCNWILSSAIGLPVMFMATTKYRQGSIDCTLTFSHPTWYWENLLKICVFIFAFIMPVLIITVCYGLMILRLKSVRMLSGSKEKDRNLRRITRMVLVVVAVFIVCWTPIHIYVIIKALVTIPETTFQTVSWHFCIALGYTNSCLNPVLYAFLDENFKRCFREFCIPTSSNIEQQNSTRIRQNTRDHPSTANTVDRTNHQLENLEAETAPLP

COC1(c2ccnc(C(N)=O)c2)C2CCCC1CN(Cc1cc3ccccc3[nH]1)C2 (stereo unspecified) showed a Ki of under 1 nM.
